Results as given in patent US20030040541A1, “Use of bismuth subgallate in inhibition of production of nitric oxide synthase” (Hedonist Biochemical Technologies Co., Ltd., priority 2001, published 2003).

Test system: RAW 264.7 cells
Assay: NO production (nitrite, Griess reaction) by LPS/IFN-γ activated RAW 264.7 cells
Format: cell-based, mice
Conditions: 24 hours
Description: The cells of the mice macrophage cell line RAW 264.7 (under accession number CCRC 60001), which was obtained from Cell Culture Research Center, Food Industry Research and Development Institute, Hsinchu, Taiwan, R.O.C., were used for the test.
The RAW 264.7 cells were incubated in a 96 well tissue culture plate (Falcon). After 24 hours, the cells were activated with Dulbecco's Modified Eagle Medium (DMEM, 2014, GibcoBRL) in the presence and absence of 100 ng/ml LPS, 100 U/ml IFN-γ and various concentrations (10 μM, 20 μM, 50 μM, 100 μM and 200 μM) of bismuth subgallate (Hwang et al., 1994, J. Biol. Chem. 269, p. 711-715). After 24 hours, 50 μl of the supernatant from each well was assayed for the presence of nitrite through the Saville modification of the Griess reaction (Green et al., Analytical Biochem, 1982, 126:131-138). The results were represented by the means plus standard errors values (Mean±SE) of three repetitions.
The effect of borneol on the inhibition of NO synthase was tested through the same experimental procedures as described in Example 1. Various concentrations of borneol (0 μM, 40 μM, 80 μM, 160 μM, 320 μM and 640 μM) were used to replace bismuth subgallate of Example 1. The results were represented by the mean values of three repetitions with standard errors (Mean±SE).
The effect of bismuth subgallate in combination with borneol on the inhibition of NO synthase was tested through the similar experimental procedures as described in Example 1. The following concentrations of Bismuth subgallate: 0 μM, 12.5 μM, 25 μM, 50 μM and 100 μM, were combined with the following concentrations of borneol: 0 μM, 10 μM, 20 μM and 40 μM, respectively, to obtain the combinations for the replacement of bismuth subgallate used in Example 1. The results were represented by the mean values of three repetitions with standard errors (Mean±SE).

## CC1(C)C2CCC1(C)C(O)C2 (stereo not drawn) [borneol]
Borneol 0, 40, 80, 160, 320, 640 μM, LPS + IFN-γ activated cells, FIG. 2
  NO production (nitrite concentration in supernatant): not significantly inhibited

## bismuth subgallate
Bismuth subgallate 10, 20, 50, 100, 200 μM, 100 ng/ml LPS + 100 U/ml IFN-γ, FIG. 1
  NO production (nitrite concentration in supernatant): showed a reduction in nitrite concentration
Bismuth subgallate 10-200 μM, LPS + IFN-γ activated cells, FIG. 1
  concentration dependence of NO production: inversely proportional to the increase in the concentration of bismuth subgallate
